Settings: Liquid, Vibrating tube method

CCCCCCCCCCCCCC [tetradecane]
Settings	mass density [kg/m3]
323.2 K, 1050 kPa	737
323.2 K, 2020 kPa	742
323.2 K, 3160 kPa	743
323.2 K, 4070 kPa	744
323.2 K, 5060 kPa	745
323.3 K, 5940 kPa	745
373.4 K, 2080 kPa	707
373.4 K, 4050 kPa	709
373.4 K, 6010 kPa	710
373.4 K, 7070 kPa	711
373.5 K, 2970 kPa	708
373.5 K, 5010 kPa	710
373.6 K, 1010 kPa	706
422.5 K, 1080 kPa	672
422.5 K, 2140 kPa	673
422.6 K, 3020 kPa	675
422.6 K, 4020 kPa	676
422.6 K, 5040 kPa	677
422.6 K, 6050 kPa	679
422.7 K, 7000 kPa	680
422.7 K, 8000 kPa	681

Source: the NIST ThermoML archive (doi:10.1021/je200575c)
